Where two headings read alike, the source gives them in different places.
Biological target: T1, human Kv4.3/KChIP2.2 potassium channel (Homo sapiens, UniProt Q9UK17)
T1 construct: expressed in transfected cells
T1 sequence (Q9UK17 1-655): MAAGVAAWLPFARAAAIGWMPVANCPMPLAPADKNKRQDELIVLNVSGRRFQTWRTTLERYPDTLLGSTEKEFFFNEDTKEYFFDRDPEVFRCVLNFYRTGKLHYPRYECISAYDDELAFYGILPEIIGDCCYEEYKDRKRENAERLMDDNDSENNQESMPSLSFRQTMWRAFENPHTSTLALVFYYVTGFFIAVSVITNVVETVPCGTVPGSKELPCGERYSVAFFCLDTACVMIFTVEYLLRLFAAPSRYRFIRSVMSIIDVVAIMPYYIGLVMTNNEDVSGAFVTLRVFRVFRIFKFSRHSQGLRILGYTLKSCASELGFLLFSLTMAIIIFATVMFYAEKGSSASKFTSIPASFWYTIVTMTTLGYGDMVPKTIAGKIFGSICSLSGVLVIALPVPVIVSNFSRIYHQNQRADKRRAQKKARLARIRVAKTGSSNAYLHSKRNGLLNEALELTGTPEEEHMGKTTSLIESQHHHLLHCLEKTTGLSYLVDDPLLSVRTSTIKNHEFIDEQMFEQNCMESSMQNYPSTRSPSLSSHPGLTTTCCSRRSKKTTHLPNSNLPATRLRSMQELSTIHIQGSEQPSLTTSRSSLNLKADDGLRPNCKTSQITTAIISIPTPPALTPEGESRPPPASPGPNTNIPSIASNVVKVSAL
T1 sequence (Q9NS61 1-270 partner): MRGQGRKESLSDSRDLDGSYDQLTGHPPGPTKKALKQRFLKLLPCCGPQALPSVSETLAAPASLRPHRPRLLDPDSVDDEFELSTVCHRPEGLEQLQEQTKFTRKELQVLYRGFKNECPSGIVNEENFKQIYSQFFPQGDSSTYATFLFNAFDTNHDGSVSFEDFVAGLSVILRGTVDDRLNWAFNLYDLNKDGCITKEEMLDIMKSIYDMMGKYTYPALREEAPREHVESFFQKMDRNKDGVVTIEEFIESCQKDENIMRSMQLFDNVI
Test: Whole cell patch clamp, CHO-K1 cells stably expressing Kv4.3/KChIP2.2
Type: cell-based
Conditions: for remaining activity at 1 µM: CHO-K1
Summary of the method: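 Whole-cell patch clamp at 20-25 °C, bath pH 7.4 with 4 mM KCl, pipette 130 mM KCl/10 mM EGTA/5 mM Na2ATP. Compound at […] (≤0.1% DMSO), n=2; pulses from −100 mV to +40 mV for 300 ms at 0.1 Hz, P/n (n=5) leak-corrected, cells with 1–50 nA currents only.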

[1] = Table 12, read-out: Kv4.3 charge IC50
[2] = Table 6, estimated from 2 μM, hill=1, ymax=100, read-out: IC50 (μM) Kv4.3
[3] = read-out: Kv4.3 charge in %: remaining current measured after application of the compound and relative to the blank
[4] = read-out: Kv4.3 peak in %: remaining peak height measured after application of the compound and relative to the blank

Compound | IC50 [1] | IC50 [2] | IC50 (Table 9, read-out: IC50 (μM) Kv4.3) | remaining activity at 1 µM [3] | remaining activity at 1 µM [4]
C[C@@H](NC(=O)c1cc2cc(Cl)ccc2o1)c1ccc([N+](=O)[O-])cc1 [Compound 1, 5-chloro-benzofuran-2-carboxylic acid [(R)-1-(4-nitro-phenyl)-ethyl]-amide] | 2.08 µM | – | – | – | –
5-chloro-benzofuran-2- carboxylic acid [3- (10,11-dihydro- dibenzo[a,d]cyclohepten- 5-ylidene)-propyl]- methyl-amide [Compound 5] | 16 µM | 16 µM | – | – | –
5-chloro-benzofuran-2- carboxylic acid 2,4- dimethoxy- benzylamide [Compound 2] | 1.75 µM | 1.75 µM | 1.75 µM | – | –
O=C(NCc1ccc(OC(F)(F)F)cc1)c1cc2cc(Cl)ccc2o1 [Compound 89, 5-chloro-benzofuran-2-carboxylic acid 4-trifluoromethoxy-benzylamide] | – | – | – | 37% | 77%
Cc1c(C(=O)NCc2ccc(F)c(C(F)(F)F)c2)sc2ccc(Cl)cc12 [Compound 107, 5-chloro-3-methyl-benzo[b]thiophene-2-carboxylic acid 4-fluoro-3-trifluoromethyl-benzylamide] | – | – | – | 30% | 87%

Source: patent US20080039442A1, “Compounds With Kv4 Ion Channel Activity” (Devgen NV, priority 2004, published 2008)
